Experimental data: patent US8921563B2, “1-[(4-hydroxypiperidin-4-yl)methyl]pyridin-2(1H)-one derivatives, preparation methods and uses thereof” (Institue of Pharmacology and Toxicology Academy of Military …, priority 2010, dated 2014)

Legend:
[1] = biological target: NET (Homo sapiens, UniProt P23975); assay: Preliminary test of NET binding effect of YL-0911; details: 10^-5 and 10^-7 mol/L; NET protein from HEK-293 cell line
From the text: (4) Preliminary Test of NET Binding Effect of YL-0911 and Positive Control Drugs
Two different drug concentrations, 10^−5 and 10^−7 mol/L, were used to determine the binding effect of YL-0911 on NET protein extracted from the HEK-293 cell lines of stably expression NET.

[2] = tested on: mice; assay: Forced swim test in mice; type: in vivo; details: acute, 1 h before test
Method: 2.1.1 Forced Swim Test in Mice
Forced swim test in mice is an acute behavioral despair model established by Porsolt, et al.
(1) Experimental device: a glass cylinder (diameter 13 cm, height 24 cm, containing 10 cm of water maintained at 25).
(2) Experimental method: Male Kunming mice weighing 20-25 g. The mice were gently put in the water 1 h after intragastrically drug administration, and then the duration of immobility in the last 4 min of total 6 min test was recorded.

[3] = tested on: mice; assay: Tail suspension test in mice; type: in vivo; details: acute, 1 h before test
From the text: 2.1.2 Tail Suspension Test in Mice
Tail suspension test in mice is an acute behavioral despair model established by Stem, et al. (1985).
1) Experimental device: an experimental frame with spacing boards which dividing the experimental frame into 2 experimental chambers (20×25×30 cm). A clamp is mounted on a through cross rod in the chamber for clamping mice tail so as to suspend the mice.
2) Experimental method: Male Kunming mice weighing 20-25 g. The mice were intragastrically administered with YL-0911 or vehicle (distilled water). After 1 h, wrap adhesive tape around the mouse's tail in position three quarters of the distance from the base of the tail and then suspend the animals by passing the suspension hook through the adhesive tape 5 cm above the table. The duration of immobility in the last 4 min of total 6 min test was recorded.

[4] = biological target: T1, 5-HT reuptake (Rattus norvegicus, UniProt P31652); assay: 5-HT reuptake inhibition in crudely produced rat synaptosomes ([3H]-5-HT); type: biochemical; details: [3H]-5-HT 20.3 nM, read-out: IC50 of 5-HT reuptake inhibition in rat brain
T1 construct: from tissue; host or cells: rat brain (hippocampi and cortex separated; results from cortex), crude synaptosomes
T1 sequence (P31652 whole entry): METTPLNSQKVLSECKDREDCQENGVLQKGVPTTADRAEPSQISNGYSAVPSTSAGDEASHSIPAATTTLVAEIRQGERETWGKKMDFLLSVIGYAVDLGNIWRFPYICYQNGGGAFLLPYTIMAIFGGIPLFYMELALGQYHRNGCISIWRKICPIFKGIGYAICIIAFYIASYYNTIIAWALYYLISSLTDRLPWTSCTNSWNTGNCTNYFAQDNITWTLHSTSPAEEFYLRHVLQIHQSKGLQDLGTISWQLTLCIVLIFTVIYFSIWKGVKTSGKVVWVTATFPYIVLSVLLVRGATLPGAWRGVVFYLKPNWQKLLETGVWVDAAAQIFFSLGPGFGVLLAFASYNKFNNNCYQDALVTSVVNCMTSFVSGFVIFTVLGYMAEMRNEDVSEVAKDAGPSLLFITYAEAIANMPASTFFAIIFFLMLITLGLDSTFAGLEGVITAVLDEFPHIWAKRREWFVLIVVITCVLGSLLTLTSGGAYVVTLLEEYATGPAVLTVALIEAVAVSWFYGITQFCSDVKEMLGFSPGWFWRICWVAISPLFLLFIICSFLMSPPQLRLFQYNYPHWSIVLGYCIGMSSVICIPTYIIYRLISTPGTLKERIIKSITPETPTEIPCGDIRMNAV
Method: (1) Preparation of Synaptosome Protein.
1) Rats were rapidly decapitated and the brains were removed, and hippocampi and cortex were separated on ice.
2) Same brain tissues of 3 rats were combined, to which 10 times volume of ice-bath homogenate was added, and homogenized.
3) The homogenate was centrifuged at 4° C. under 1500 g for 10 minutes and the precipitate was decanted.
4) The supernatant was centrifuged at 4° C. under 12000 g for 15 minutes and the supernatant was decanted, and the precipitate portion was a crudely produced synaptosome.
5) Washed with resuspension buffer twice and centrifuged at 4° C. under 13000 g for 10 minutes and resuspended again.
6) Protein concentration was measured by Lowrry method.
7) The synaptosome was preserved on ice, and the test was completed within 4-6 h.
1) To all tubes, the crudely produced synaptosome protein was added in an amount of 50 μg in sequence.
3) To the test tubes, the drug to be tested in various concentrations in range of 10^−3-10^−10M was added in sequence and reacted for 15 minutes. […]
7) The samples were then applied to 49-type glass fibre filters, vacuum suction filtered, washed 5 times with 10 ml ice-cooled Tris-HCl buffer. […] The radioactive intensity was measured by using LS6500 type liquid scintillation counter.
The calculated inhibition percents were used to calculate IC50 value by using Orgin7.0/GraphPad Prism 4.0 software.

[5] = biological target: T2, 5-HT1A receptor (Rattus norvegicus, UniProt P19327); assay: Competitive binding test of YL-0911 and positive drugs to 5-HT1A receptor (extracted from hippocampi); details: [3H]-8-OH-DPAT 0.25 nM
T2 construct: the content of 5-HT1A receptor extracted from rat hippocampi was 5.5 mg/ml; from tissue; host or cells: Wistar rat hippocampus, membrane preparation
T2 sequence (P19327 1-422): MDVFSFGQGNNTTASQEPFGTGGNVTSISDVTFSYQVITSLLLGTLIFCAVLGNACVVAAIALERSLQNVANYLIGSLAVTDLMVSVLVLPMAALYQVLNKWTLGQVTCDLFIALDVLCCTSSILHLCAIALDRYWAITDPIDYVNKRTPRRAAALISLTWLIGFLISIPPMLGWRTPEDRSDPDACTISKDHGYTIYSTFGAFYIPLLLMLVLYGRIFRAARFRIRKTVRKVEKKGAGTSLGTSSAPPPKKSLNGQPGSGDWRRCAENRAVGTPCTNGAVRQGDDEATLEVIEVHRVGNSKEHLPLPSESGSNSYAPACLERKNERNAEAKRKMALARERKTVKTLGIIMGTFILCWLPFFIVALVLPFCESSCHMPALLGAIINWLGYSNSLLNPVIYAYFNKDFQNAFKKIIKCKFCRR
Method: 1) Test tubes were placed in 37° C. reactor.
3) To the test tubes, 20 μl of the drug to be tested (selecting a concentration ranging from 10^−3-10^−10M) was added.
IC50 and Kd were used to calculate Ki value.

[6] = biological target: SERT (Homo sapiens, UniProt P31645); assay: Competitive binding test of YL-0911 and positive drugs to SERT (hSERT from transfected cell lines)
Chain of SERT (P31645 whole entry): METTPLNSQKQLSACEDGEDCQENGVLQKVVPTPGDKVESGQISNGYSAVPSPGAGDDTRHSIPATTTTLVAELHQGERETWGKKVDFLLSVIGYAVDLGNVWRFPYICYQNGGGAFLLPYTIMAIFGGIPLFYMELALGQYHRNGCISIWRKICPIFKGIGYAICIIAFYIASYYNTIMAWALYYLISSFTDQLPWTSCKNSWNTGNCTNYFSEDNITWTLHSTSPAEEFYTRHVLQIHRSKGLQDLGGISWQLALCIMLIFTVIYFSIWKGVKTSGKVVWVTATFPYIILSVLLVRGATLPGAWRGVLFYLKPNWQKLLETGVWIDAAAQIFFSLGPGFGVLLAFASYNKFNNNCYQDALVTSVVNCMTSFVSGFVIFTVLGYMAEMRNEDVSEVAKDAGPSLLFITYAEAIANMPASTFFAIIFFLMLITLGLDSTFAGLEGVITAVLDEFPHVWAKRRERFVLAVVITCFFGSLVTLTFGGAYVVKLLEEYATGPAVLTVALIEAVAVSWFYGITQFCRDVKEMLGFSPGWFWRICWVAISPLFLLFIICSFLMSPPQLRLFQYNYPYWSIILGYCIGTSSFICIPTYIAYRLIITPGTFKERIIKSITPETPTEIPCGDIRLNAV

[7] = biological target: T2, 5-HT1A receptor; assay: Screening: competitive binding test to 5-HT1A receptor using [3H]-8-OH-DPAT, rat hippocampi membrane protein; details: [3H]-8-OH-DPAT 1.28 nM, read-out: Inhibition percent (I %), competitive binding to 5-HT1A receptor
Method: 1.4.1 Screening of YL Series Compounds
(1) Preparation of Membrane Proteins in Rat Hippocampi
Wister rats, 220-260 g, female and male, were sacrificed by decapitation and hippocampis were rapidly separated, weighed and to which homogenized in 10 times volume of Tris-HCl buffer solution (50 mM Tris-HCl, 5 mM MgCl2,1 mM EDTA, 0.5% (WN) BSA, 1 mM PMSF, 3 μg/ml proteinase inhibitor, 0.1% NaN3, 0.32M sucrose, pH 7.4) at 15,000 rpm for 30 s, total 5 times. The homogenate was centrifuged under 1000×g for 10 minutes and the supernatant was then centrifuged under 39000×g for 10 minutes. The precipitate was collected, and resuspended with 10 times volume of Tris-HCl buffer solution (pH 7.4) relative to the original weight, then centrifuged under 39000×g for 10 minutes. The precipitate was washed with the same buffer solution, centrifuged under 39000×g for 10 minutes and the precipitate was suspended with the above buffer solution. After sub-packaged (the whole operation procedures were performed under ice bath), the product was stored at −80° C. The protein concentration was measured by Lowrry method.
1) In the 5-HT1A receptor binding test, tubes are firstly placed under reaction condition of 25° C.
2) To all of the tubes, the receptor proteins extracted from rat hippocampi in an amount of 100 μg were added in sequence.
4) To the test tubes, 30 μl of the compound in corresponding concentrations (used for screening: 10^−5, 10^−7, 10^−9M) was added in sequence.
6) Tris-HCl buffer solution (50 mM Tris-HCl, 1 mM EDTA, 5 mM MgCl2, 0.1 mM PMSF, 0.1% NaN3, pH 7.4) was supplied to all of the tubes to reach a volume of 300 μl.
7) The reaction was performed at 25° C. for 1 h.
8) Then samples were applied to 49-type glass fibre filter, vacuum suction filtered, then washed three times with 2 ml ice-cold Tris-HCl buffer solution (50 mM Tris-HCl buffer solution, 1 mM EDTA, 5 mM MgCl2, 1 mM PMSF, 0.1% NaN3, 3 μg/ml proteinase inhibitor, pH 7.4). […] The radio-activity was measured by a scintillation counter.

Chain of NET (P23975 whole entry): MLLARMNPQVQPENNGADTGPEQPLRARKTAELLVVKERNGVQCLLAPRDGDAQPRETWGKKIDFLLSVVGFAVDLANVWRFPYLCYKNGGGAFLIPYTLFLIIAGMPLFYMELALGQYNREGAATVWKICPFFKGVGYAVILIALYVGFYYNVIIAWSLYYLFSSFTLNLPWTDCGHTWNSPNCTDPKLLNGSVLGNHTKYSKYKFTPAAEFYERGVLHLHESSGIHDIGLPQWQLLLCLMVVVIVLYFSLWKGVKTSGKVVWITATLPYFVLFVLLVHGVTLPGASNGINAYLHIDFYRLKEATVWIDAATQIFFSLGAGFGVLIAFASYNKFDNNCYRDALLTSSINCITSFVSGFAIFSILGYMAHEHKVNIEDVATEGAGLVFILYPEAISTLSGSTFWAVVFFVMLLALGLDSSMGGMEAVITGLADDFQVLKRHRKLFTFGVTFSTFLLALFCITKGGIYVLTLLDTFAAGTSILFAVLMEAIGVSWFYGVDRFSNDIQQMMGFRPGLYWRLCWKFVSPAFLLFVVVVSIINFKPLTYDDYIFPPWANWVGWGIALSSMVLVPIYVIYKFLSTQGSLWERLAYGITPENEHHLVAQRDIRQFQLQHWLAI

Structure (SMILES): O=c1ccccn1CC1(O)CCN(Cc2ccccc2)CC1 [Compound 1, 1-[(1-benzyl-4-hydroxypiperidin-4-yl)-methyl]-pyridin-2(1H)-one]
- melting point: 216 to 218 °C
- affinity to NET (selectivity) [1]: obviously lower than the affinity to SERT and 5-HT1A
- Immobility time (s), forced swim test ([2]; 0.625 mg/kg p.o.): 126.1 ± 60.9 s
- Immobility time (s), forced swim test ([2]; 1.25 mg/kg p.o.): 72.0 ± 46.5 s
- Immobility time (s), forced swim test ([2]; 5 mg/kg p.o.): 149.6 ± 39.1 s
- Immobility time (s), tail suspension test ([3]; 0.625 mg/kg p.o.): 105.4 ± 24.6 s
- Immobility time (s), tail suspension test ([3]; 1.25 mg/kg p.o.): 93.8 ± 38.7 s
- Immobility time (s), tail suspension test ([3]; 5 mg/kg p.o.): 98.8 ± 45.3 s
- IC50 [4]: 8.51 ± 0.23 nM
- Ki [5]: 0.44 ± 0.32 nM
- Ki [6]: 5.38 ± 0.27 nM
- inhibition at 10 µM ([7]; compound 10^-5 mol/L): 100%
- inhibition at 0.1 µM ([7]; compound 10^-7 mol/L): 85%
